Measured values: patent publication US20230374038A1, “MODULATORS OF CYSTIC FIBROSIS TRANSMEMBRANE CONDUCTANCE REGULATOR” (VERTEX PHARMACEUTICALS INCORPORATED, priority 2020, published 2023)

The compounds below were run against T1, CFTR (Homo sapiens, UniProt P13569, DEL508-508) (assay: HBE Assay: Ussing chamber assay of CFTR-mediated short-circuit currents in F508del/MF-HBE cells with 1 μM Ivacaftor). Conditions: range of concentrations with 1 μM Ivacaftor, 18-24 hours, 20% human serum.
T1 construct: endogenous in cells; host or cells: primary human bronchial epithelial cells, F508del/MF genotype
Format: cell-based
Outline: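 F508del/MF-HBE cells at air-liquid interface >14 days were incubated 18-24 h at 37° C with corrector (concentration range or fixed 10 μM) plus 1 μM Ivacaftor in 20% human serum, compounds kept throughout. Ussing chamber, Vhold=0 mV, 37° C, apical amiloride 30 μM; ISC (μA/cm^2) from peak 20 μM forskolin response to steady state after CFTR inhibitor cocktail.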

T1 sequence (P13569 with tags, fused parts or gaps DEL508-508): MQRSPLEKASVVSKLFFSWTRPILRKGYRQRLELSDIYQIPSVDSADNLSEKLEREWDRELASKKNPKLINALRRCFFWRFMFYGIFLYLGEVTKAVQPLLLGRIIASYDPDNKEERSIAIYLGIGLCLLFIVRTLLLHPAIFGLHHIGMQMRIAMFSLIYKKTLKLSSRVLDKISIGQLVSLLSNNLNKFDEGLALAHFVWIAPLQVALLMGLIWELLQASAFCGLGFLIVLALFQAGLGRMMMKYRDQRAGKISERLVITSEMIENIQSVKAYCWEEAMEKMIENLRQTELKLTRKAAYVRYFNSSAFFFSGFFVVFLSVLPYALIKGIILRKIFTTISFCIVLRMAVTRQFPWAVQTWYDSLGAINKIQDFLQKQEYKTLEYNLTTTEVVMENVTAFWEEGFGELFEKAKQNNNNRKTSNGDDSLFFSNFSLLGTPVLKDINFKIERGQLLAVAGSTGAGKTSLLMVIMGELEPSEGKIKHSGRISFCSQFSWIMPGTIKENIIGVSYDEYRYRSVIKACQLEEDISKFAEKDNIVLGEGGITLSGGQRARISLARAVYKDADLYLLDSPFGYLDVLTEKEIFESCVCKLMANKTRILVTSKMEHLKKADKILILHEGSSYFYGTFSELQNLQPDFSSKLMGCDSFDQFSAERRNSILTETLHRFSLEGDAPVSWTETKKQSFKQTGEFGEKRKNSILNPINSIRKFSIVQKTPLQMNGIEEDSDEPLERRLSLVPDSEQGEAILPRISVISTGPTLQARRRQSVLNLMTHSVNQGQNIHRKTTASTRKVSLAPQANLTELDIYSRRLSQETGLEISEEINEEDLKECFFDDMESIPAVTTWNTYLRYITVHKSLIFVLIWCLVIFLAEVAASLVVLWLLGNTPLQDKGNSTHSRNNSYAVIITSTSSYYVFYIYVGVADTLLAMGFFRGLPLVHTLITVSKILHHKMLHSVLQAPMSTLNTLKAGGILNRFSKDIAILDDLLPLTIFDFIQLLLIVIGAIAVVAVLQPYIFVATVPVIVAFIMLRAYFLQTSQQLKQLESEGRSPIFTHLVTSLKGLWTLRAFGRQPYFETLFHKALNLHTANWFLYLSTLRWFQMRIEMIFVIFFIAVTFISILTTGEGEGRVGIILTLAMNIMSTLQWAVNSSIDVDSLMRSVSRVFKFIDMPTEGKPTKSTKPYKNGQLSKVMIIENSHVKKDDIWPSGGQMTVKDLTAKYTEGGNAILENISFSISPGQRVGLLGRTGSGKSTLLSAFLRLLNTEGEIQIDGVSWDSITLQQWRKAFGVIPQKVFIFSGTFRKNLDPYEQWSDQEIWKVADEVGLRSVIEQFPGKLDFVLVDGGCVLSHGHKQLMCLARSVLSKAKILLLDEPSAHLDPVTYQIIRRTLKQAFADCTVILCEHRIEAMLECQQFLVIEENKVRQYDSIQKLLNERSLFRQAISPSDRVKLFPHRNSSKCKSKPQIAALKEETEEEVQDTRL

EC50 [nM]	Structure (SMILES)
< 1000	Cc1cccc(OC(C)C)c1-c1nc2nc(c1C)OC[C@@H](CC(C)(C)C)N(Cc1cncc(N(C)CC(C)(C)C)n1)C(=O)c1cccc(c1)S(=O)(=O)N2 (atropisomer, axis not shown) [Compound 332]
< 1000	Cc1cccc(CC(C)(C)C)c1-c1nc2nc(c1C)OC[C@@H](CC(C)(C)C)N(Cc1ncc(OC(C)C)cn1)C(=O)c1cccc(c1)S(=O)(=O)N2 (atropisomer, axis not shown) [Compound 351]

Same assay, conditions: single fixed concentration of 10 μM with 1 μM Ivacaftor, 18-24 hours, 20% human serum

HBE Activity at 10 μM (%)	Structure (SMILES)
+++ (+++ is >60%)	Cc1cccc(CC(C)(C)C)c1-c1nc2nc(c1C)OC[C@@H](CC(C)(C)C)N(Cc1ncc(OC3CCC3)cn1)C(=O)c1cccc(c1)S(=O)(=O)N2 (atropisomer, axis not shown) [Compound 353]
+++ (+++ is >60%)	Cc1cccc(C)c1-c1nc2nc(c1C)OC[C@@H](CC1CCC1)N(Cc1ncc(OC(C)C)cn1)C(=O)c1cccc(c1)S(=O)(=O)N2 [Compound 355]
+++ (+++ is >60%)	Cc1cccc(CC(C)(C)C)c1-c1nc2nc(c1C)OC[C@@H](CC(C)(C)C)N(Cc1ncc(OC(C)C)cn1)C(=O)c1cccc(c1)S(=O)(=O)N2 (atropisomer, axis not shown) [Compound 351]

Same assay, conditions: single fixed concentration of 10 μM, with 1 μM Ivacaftor, 20% human serum

Structure (SMILES)	HBE Activity at 10 μM
Cc1cccc(CC(C)C)c1-c1nc2nc(c1C)OC[C@@H](CC(C)(C)C)NC(=O)c1cccc(c1)S(=O)(=O)N2 (atropisomer, axis not shown) [Compound 226]	+++ (+++ is >600%)
Cc1cccc(COC(C)C)c1-c1nc2nc(c1C)OC[C@@H](CC(C)(C)C)N(Cc1ncc(N3CCC(C)(C)C3)cn1)C(=O)c1cccc(c1)S(=O)(=O)N2 (atropisomer, axis not shown; (M)) [Compound 220, (5M,11R)-11-(2,2-dimethylpropyl)-12-{[5-(3,3-dimethylpyrrolidin-1-yl)pyrimidin-2-yl]methyl}-7-methyl-6-{2-methyl-6-[(propan-2-yloxy)methyl]phenyl}-9-oxa-2λ^6-thia-3,5,12,19-tetraazatricyclo[12.3.1.14,8]nonadeca-1(17),4(19),5,7,14(18),15-hexaene-2,2,13-trione]	++ (++ is 30-60%)
Cc1cccc(CC2CCOCC2)c1-c1nc2nc(c1C)OC[C@@H](CC(C)(C)C)N(Cc1ccc(N3CCOCC3)cn1)C(=O)c1cccc(c1)S(=O)(=O)N2 (atropisomer, axis not shown) [Compound 275]	+++ (+++ is >600%)
Cc1cccc(OC(C)C)c1-c1nc2nc(c1C)OC[C@@H](CC(C)(C)C)N(Cc1cnc(N(C)CC(C)(C)C)cn1)C(=O)c1cccc(c1)S(=O)(=O)N2 [Compound 222]	+++ (+++ is >600%)
Cc1cccc(CC(C)C)c1-c1nc2nc(c1C)OC[C@@H](CC(C)(C)C)N(Cc1ncc(N(C)CC(C)(C)C)cn1)C(=O)c1cccc(c1)S(=O)(=O)N2 (atropisomer, axis not shown; (M)) [Compound 210, (5M,11R)-11-(2,2-dimethylpropyl)-12-({5-[(2,2-dimethylpropyl)(methyl)amino]pyrimidin-2-yl}methyl)-7-methyl-6-[2-methyl-6-(2-methylpropyl)phenyl]-9-oxa-2λ^6-thia-3,5,12,19-tetraazatricyclo[12.3.1.14,8]nonadeca-1(17),4(19),5,7,14(18),15-hexaene-2,2,13-trione]	+++ (+++ is >600%)
Cc1cccc(C)c1-c1nc2nc(c1C)OC[C@@H](CC(C)(C)C)N(Cc1ncc(N3CCC(C)(C)CC3)cn1)C(=O)c1cccc(c1)S(=O)(=O)N2 [Compound 192]	+++ (+++ is >600%)
Cc1cccc(CC(C)C)c1-c1nc2nc(c1C)OC[C@@H](CC(C)C)N(Cc1nccc(N(C)C(C)C)n1)C(=O)c1cccc(c1)S(=O)(=O)N2 (atropisomer, axis not shown) [Compound 231]	+++ (+++ is >600%)

Other lines, results leading:

HBE Activity at 10 μM	Structure (SMILES)
+++ (+++ is >600%)	Cc1cccc(CC2CCCC2)c1-c1nc2nc(c1C)OC[C@@H](CC(C)(C)C)N(Cc1ncc(N3CCC(C)(C)C3)cn1)C(=O)c1cccc(c1)S(=O)(=O)N2 (atropisomer, axis not shown) [Compound 270]
+++ (+++ is >600%)	Cc1cccc(CC2CCCC2)c1-c1nc2nc(c1C)OC[C@@H](CC(C)(C)C)N(Cc1cccc(N3CCC[C@H]3C)n1)C(=O)c1cccc(c1)S(=O)(=O)N2 (atropisomer, axis not shown) [Compound 269]

Same assay, conditions: with 1 μM Ivacaftor, 18-24 hours, 20% human serum

Structure (SMILES)	EC50 [nM]	HBE Max Activity
Cc1cccc(CC2CCCCC2)c1-c1nc2nc(c1C)OC[C@@H](CC(C)(C)C)N(Cc1ncccc1N1CCOCC1)C(=O)c1cccc(c1)S(=O)(=O)N2 (atropisomer, axis not shown) [Compound 310]	< 1000	+++ (+++ is >600%)
Cc1cccc(CC(C)C)c1-c1nc2nc(c1C)OC[C@@H](C(C)C)N(Cc1ncc(N3CCC(C)(C)C3)cn1)C(=O)c1cccc(c1)S(=O)(=O)N2 [Compound 240]	1000 to 3000	+++ (+++ is >600%)
Cc1cccc(CC(C)C)c1-c1nc2nc(c1C)OC[C@@H](CC(C)(C)C)N(Cc1cncc(N(C)C(C)C)n1)C(=O)c1cccc(c1)S(=O)(=O)N2 (atropisomer, axis not shown) [Compound 238]	< 1000	+++ (+++ is >600%)
Cc1cccc(CC(C)C)c1-c1nc2nc(c1C)OC[C@@H](CC(C)(C)C)N(Cc1cnc(C3CCOCC3)cn1)C(=O)c1cccc(c1)S(=O)(=O)N2 (atropisomer, axis not shown) [Compound 313]	< 1000	+++ (+++ is >600%)
Cc1cccc(C)c1-c1nc2nc(c1C)OC[C@@H](CC(C)C)N(Cc1ncc(N3CCC(C)(C)C3)cn1)C(=O)c1cccc(c1)S(=O)(=O)N2 [Compound 199]	< 1000	+++ (+++ is >600%)
CCc1cccc(C)c1-c1nc2nc(c1C)OC[C@@H](CC(C)(C)C)N(Cc1ccc(N3CCOCC3)cn1)C(=O)c1cccc(c1)S(=O)(=O)N2 (atropisomer, axis not shown) [Compound 287]	< 1000	+++ (+++ is >600%)

More lines, now with the values ahead:

EC50 [nM]	HBE Max Activity	Structure (SMILES)
< 1000	+++ (+++ is >600%)	COCCN(C)c1cnc(CN2C(=O)c3cccc(c3)S(=O)(=O)Nc3nc(c(C)c(-c4c(C)cccc4CC4CCCCC4)n3)OC[C@H]2CC(C)(C)C)nc1 [Compound 283]
< 1000	+++ (+++ is >600%)	Cc1cccc(CC2CCCCC2)c1-c1nc2nc(c1C)OC[C@@H](CC(C)(C)C)N(Cc1ncc(OC(C)C)cn1)C(=O)c1cccc(c1)S(=O)(=O)N2 [Compound 234]
< 1000	+++ (+++ is >600%)	Cc1cccc(CC2CCCCC2)c1-c1nc2nc(c1C)OC[C@@H](CC(C)(C)C)N(Cc1ccc(C3CCCCC3)cn1)C(=O)c1cccc(c1)S(=O)(=O)N2 (atropisomer, axis not shown) [Compound 277]
< 1000	+++ (+++ is >600%)	Cc1cccc(CC2CCCCC2)c1-c1nc2nc(c1C)OC[C@@H](CC(C)(C)C)N(Cc1nccc(N3CCOCC3)n1)C(=O)c1cccc(c1)S(=O)(=O)N2 (atropisomer, axis not shown) [Compound 263]
< 1000	+++ (+++ is >600%)	Cc1cccc(CC2CCCCC2)c1-c1nc2nc(c1C)OC[C@@H](CC(C)(C)C)N(Cc1ncc(N(C)C)cn1)C(=O)c1cccc(c1)S(=O)(=O)N2 (atropisomer, axis not shown) [Compound 304]
< 1000	+++ (+++ is >600%)	Cc1cccc(C)c1-c1nc2nc(c1C)OC[C@@H](CC(C)C)N(Cc1ncc(OC(C)C)cn1)C(=O)c1cccc(c1)S(=O)(=O)N2 [Compound 193]
1000 to 3000	+++ (+++ is >600%)	Cc1cccc(CC2CCCCC2)c1-c1nc2nc(c1C)OC[C@@H](CC(C)(C)C)N(Cc1ccc(OC(C)C)cn1)C(=O)c1cccc(c1)S(=O)(=O)N2 (atropisomer, axis not shown) [Compound 279]
< 1000	+++ (+++ is >600%)	Cc1cccc(CC2CCCCC2)c1-c1nc2nc(c1C)OC[C@@H](CC(C)(C)C)N(Cc1ccc(C3CCOCC3)cn1)C(=O)c1cccc(c1)S(=O)(=O)N2 [Compound 257]
1000 to 3000	+++ (+++ is >600%)	COCCN(C)c1cnc(CN2C(=O)c3cccc(c3)S(=O)(=O)Nc3nc(c(C)c(-c4c(C)cccc4CC4CCCCC4)n3)OC[C@H]2CC(C)(C)C)cn1 [Compound 278]

Same assay, conditions: with 1 μM Ivacaftor, 18-24 hours, 20% human serum, compared to known Vertex corrector with 18 μM Tezacaftor and 1 μM Ivacaftor, read-out: HBE Max activity (%)

Emax [%]	Structure (SMILES)
> 60	Cc1cccc(OC(C)C)c1-c1nc2nc(c1C)OC[C@@H](CC(C)(C)C)N(Cc1cncc(N(C)CC(C)(C)C)n1)C(=O)c1cccc(c1)S(=O)(=O)N2 (atropisomer, axis not shown) [Compound 332]
> 60	Cc1cccc(CC(C)(C)C)c1-c1nc2nc(c1C)OC[C@@H](CC(C)(C)C)N(Cc1ncc(OC(C)C)cn1)C(=O)c1cccc(c1)S(=O)(=O)N2 (atropisomer, axis not shown) [Compound 351]
